According to publication PMC5765510, “One pot synthesis of GDP‐mannose by a multi‐enzyme cascade for enzymatic assembly of lipid‐linked oligosaccharides” (Biotechnology and Bioengineering, 2017):

Tests used:
Assay type in all cases: biochemical
[1] = target: T1, 1D-Ppk2 (His6-1D-Ppk2) (Pseudomonas aeruginosa, UniProt Q9I154); assay: polyphosphate-dependent phosphorylation, HPAEC-UV; settings: 4 mM PolyP14, 10 mM MgCl2, pH 7.5, 30 °C; reversible
T1 construct: gene PA2428; N-terminal His6 tag, codon-optimised synthetic gene, pET-28a(+), expressed in E. coli BL21-Gold(DE3), IMAC purified, 38 kDa
T1 sequence (Q9I154 1-304): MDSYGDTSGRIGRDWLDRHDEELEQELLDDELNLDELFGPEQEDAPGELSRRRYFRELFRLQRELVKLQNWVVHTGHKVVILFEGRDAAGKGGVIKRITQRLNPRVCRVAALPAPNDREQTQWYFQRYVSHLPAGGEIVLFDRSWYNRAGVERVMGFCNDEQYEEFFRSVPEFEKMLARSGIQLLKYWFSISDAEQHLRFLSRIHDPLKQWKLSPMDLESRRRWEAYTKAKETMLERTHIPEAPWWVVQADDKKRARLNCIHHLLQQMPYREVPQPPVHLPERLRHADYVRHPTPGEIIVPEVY

[2] = target: T2, His6-Glk (Escherichia coli, UniProt P0A6V8); assay: man6P formation, HPAEC-UV/CD; settings: 10 mM MgCl2, pH 7.5, 30 °C
T2 construct: N-terminal His6 tag, pET-28a(+), expressed in E. coli BL21-Gold(DE3), IMAC purified, 39 kDa
T2 sequence (P0A6V8 1-321): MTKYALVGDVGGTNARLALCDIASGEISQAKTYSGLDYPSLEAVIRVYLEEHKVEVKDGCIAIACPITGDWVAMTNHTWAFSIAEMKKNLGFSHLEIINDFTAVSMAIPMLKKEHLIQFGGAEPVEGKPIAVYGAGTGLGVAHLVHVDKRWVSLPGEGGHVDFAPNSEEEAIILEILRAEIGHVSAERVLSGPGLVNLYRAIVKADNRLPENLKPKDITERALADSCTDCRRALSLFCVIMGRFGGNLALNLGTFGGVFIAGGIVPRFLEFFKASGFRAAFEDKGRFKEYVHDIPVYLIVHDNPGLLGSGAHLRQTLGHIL

[3] = target: T3, ManB-His6 (ManB-His6/ManC) (Escherichia coli, UniProt P24175); assay: man1P/man6P equilibrium, HPAEC-CD; settings: 1.8 mM, 0.25 mM glucose-1,6-bisphosphate, 10 mM MgCl2, pH 7.5, 30 °C
T3 construct: C-terminal His6 ManB co-expressed and co-purified with untagged ManC, E. coli BL21-Gold(DE3), 50 kDa; ManB/ManC ratio only estimated 1:1; with Mannose-1-phosphate guanylyltransferase
T3 sequence (P24174 whole entry): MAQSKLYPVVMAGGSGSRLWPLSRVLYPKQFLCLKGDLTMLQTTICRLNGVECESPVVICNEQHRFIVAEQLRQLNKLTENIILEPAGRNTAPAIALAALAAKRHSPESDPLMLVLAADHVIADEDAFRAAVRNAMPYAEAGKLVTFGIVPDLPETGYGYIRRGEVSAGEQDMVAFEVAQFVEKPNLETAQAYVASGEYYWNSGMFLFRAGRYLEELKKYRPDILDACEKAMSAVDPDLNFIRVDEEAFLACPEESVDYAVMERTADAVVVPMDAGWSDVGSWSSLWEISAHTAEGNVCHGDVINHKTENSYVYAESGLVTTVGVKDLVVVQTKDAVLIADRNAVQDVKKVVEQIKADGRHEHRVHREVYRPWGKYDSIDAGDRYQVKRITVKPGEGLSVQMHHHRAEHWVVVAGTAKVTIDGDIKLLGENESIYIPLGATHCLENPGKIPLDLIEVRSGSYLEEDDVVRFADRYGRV
T3 sequence (P24175 whole entry): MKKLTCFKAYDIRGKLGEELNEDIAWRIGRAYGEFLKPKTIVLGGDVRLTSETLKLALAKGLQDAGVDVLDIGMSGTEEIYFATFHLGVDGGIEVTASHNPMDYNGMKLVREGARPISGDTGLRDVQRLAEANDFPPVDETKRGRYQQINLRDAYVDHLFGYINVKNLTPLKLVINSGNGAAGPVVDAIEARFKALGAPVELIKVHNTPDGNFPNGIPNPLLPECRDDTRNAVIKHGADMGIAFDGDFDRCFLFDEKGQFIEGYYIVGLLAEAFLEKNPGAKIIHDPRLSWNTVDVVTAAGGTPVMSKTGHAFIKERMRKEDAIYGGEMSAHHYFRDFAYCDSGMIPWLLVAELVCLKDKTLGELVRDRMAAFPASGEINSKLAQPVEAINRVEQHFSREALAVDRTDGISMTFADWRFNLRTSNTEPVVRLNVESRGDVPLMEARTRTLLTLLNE

SMILES: Nc1ncnc2c1ncn2[C@@H]1O[C@H](COP(=O)(O)OP(=O)(O)O)[C@@H](O)[C@H]1O [ADP]
- polyphosphate-dependent phosphorylation, HPAEC-UV [1]: phosphorylation of ADP and GDP, respectively, by His6‐1D‐Ppk2 are equilibrium reactions

SMILES: Nc1ncnc2c1ncn2[C@@H]1O[C@H](COP(=O)(O)OP(=O)(O)OP(=O)(O)O)[C@@H](O)[C@H]1O [ATP]
- man6P formation, HPAEC-UV/CD ([2]; mannose co-substrate): conversion of ATP and mannose to man6P and ADP is irreversible

SMILES: Nc1nc2c(ncn2[C@@H]2O[C@H](COP(=O)(O)OP(=O)(O)O)[C@@H](O)[C@H]2O)c(=O)[nH]1 [GDP]
- polyphosphate-dependent phosphorylation, HPAEC-UV [1]: phosphorylation of ADP and GDP, respectively, by His6‐1D‐Ppk2 are equilibrium reactions

SMILES: O=P(O)(O)O[C@H]1O[C@H](CO)[C@@H](O)[C@H](O)[C@@H]1O [man1P]
- man1P/man6P equilibrium, HPAEC-CD [3]: equilibrium conversion of man1P to man6P catalyzed by the ManB‐His6/ManC complex

SMILES: OC[C@H]1OC(O)[C@@H](O)[C@@H](O)[C@@H]1O (some centres unmarked) [mannose]
- man6P formation, HPAEC-UV/CD ([2]; ATP 1.7 mM, irreversible): conversion of ATP and mannose to man6P and ADP is irreversible
